Assay results taken from US6218406A, “Farnesyl transferase inhibitors, their preparation, the pharmaceutical compositions which contain them and their use in the preparation of medicaments” (Aventis Pharma S.A., priority 1996, dated 2001).

Each compound was assayed against farnesyl transferase (Homo sapiens, UniProt P49354+P49356) (assay: Farnesyl transferase inhibition, [3H]-farnesylation of biotinylated K-ras C-terminal peptide (SPA assay)). Settings: In vitro inhibitory activity (K-Ras) IC50, K-Ras substrate; 60 min at 37° C.; mean of two IC50 values.
Type: biochemical

Row | Structure (SMILES) | IC50
1 | COc1ccccc1CC(=O)N1C[C@H]2[C@@]3(c4ccc(C)cc4)CC[C@H](c4ccccc43)[C@@]2(C(=O)O)C1 (relative stereo) [Example 5, (3aRS,4SR,9SR,9aRS)-4,9-ethano-2-[(2-methoxyphenyl)acetyl]-9-(4-methylphenyl)-2,3,3a,4,9,9a-hexahydro-1H-benzo[f]isoindole-3a-carboxylic Acid] | 50 nM
2 | COc1ccccc1CC(=O)N1C[C@H]2[C@@]3(c4ccc(F)cc4)CC[C@H](c4ccccc43)[C@@]2(C(=O)O)C1 (relative stereo) [Example 8, (3aRS,4SR,9SR,9aRS)-4,9-ethano-9-(4-fluorophenyl)-2-[(2-methoxyphenyl)acetyl]-2,3,3a,4,9,9a-hexahydro-1H-benzo[f]isoindole-3a-carboxylic Acid] | 100 nM
3 | COc1ccccc1CC(=O)N1C[C@H]2[C@@]3(c4cccc(C)c4)CC[C@H](c4ccccc43)[C@@]2(C(=O)O)C1 (relative stereo) [Example 9, (3aRS,4SR,9SR,9aRS)-4,9-ethano-2-[(2-methoxyphenyl)acetyl]-9-(3-methylphenyl)-2,3,3a,4,9,9a-hexahydro-1H-benzo[f]isoindole-3a-carboxylic Acid] | 55 nM

Same assay, conditions: K-Ras substrate; 60 min at 37° C.; mean of two IC50 values; read-out: In vitro inhibitory activity (K-Ras) IC50

Row | IC50 | Structure (SMILES)
4 | 140 nM | C=C(C(=O)N1C[C@H]2[C@@]3(c4ccc(C)cc4)CC[C@H](c4ccccc43)[C@@]2(C(=O)NCc2ccccc2)C1)c1ccccc1OC (relative stereo) [Example 13, (3aRS,4SR, 9SR,9aRS)-3a-N-benzylcarbamoyl-4,9-ethano-2-[2-(2-methoxyphenyl)propenoyl]-9-(4-methylphenyl)-2,3,3a,4,9,9a-hexahydro-1H-benzo[f]isoindole]
5 | 235 nM | C=C(C(=O)N1C[C@H]2[C@@]3(c4ccc(C)cc4)CC[C@H](c4ccccc43)[C@@]2(C(=O)NCc2cccnc2)C1)c1ccccc1OC (relative stereo) [Example 17, (3aRS,4SR,9SR,9aRS)-4,9-ethano-2-[2-(2-methoxyphenyl)propenoyl]-9-(4-methylphenyl)-2,3,3a,4,9,9a-hexahydro-1H-benzo[f]isoindole-3a-N-(3-pyridylmethyl)carboxamide]
6 | 140 nM | C=C(C(=O)N1C[C@H]2[C@@]3(c4ccc(C)cc4)CC[C@H](c4ccccc43)[C@@]2(C(=O)NCc2ccncc2)C1)c1ccccc1OC (relative stereo) [Example 20, (3aRS,4SR,9SR,9aRS)-4,9-ethano-2-[2-(2-methoxyphenyl)propenoyl]-9-(4-methylphenyl)-2,3,3a,4,9,9a-hexahydro-1H-benzo[f]isoindole-3a-N-(4-pyridylmethyl)carboxamide]
7 | 131 nM | C=C(C(=O)N1C[C@H]2[C@@]3(c4ccc(C)cc4)CC[C@H](c4ccccc43)[C@@]2(C(=O)NN(C)C)C1)c1ccccc1OC (relative stereo) [Example 22, (3aRS,4SR,9SR,9aRS)-4,9-ethano-2-[2-(2-methoxyphenyl)propenoyl]-9-(4-methylphenyl)-2,3,3a,4,9,9a-hexahydro-1H-benzo[f]isoindole-3a-N',N'-dimethylcarbohydrazide]
8 | 277 nM | C=C(C(=O)N1C[C@H]2[C@@]3(c4ccc(C)cc4)CC[C@H](c4ccccc43)[C@@]2(C(=O)NNc2ccccc2)C1)c1ccccc1OC (relative stereo) [Example 23, (3aRS,4SR,9SR,9aRS)-4,9-ethano-2-[2-(2-methoxyphenyl)propenoyl]-9-(4-methylphenyl)-2,3,3a,4,9,9a-hexahydro-1H-benzo[f]isoindole-3a-N'-phenylcarbohydrazide]
9 | 145 nM | C=C(C(=O)N1C[C@H]2[C@@]3(c4ccc(C)cc4)CC[C@H](c4ccccc43)[C@@]2(C(=O)NCc2ccc[n+]([O-])c2)C1)c1ccccc1OC (relative stereo) [Example 26, (3aRS,4SR,9SR,9aRS)-4,9-ethano-2-[2-(2-methoxyphenyl)-propenoyl]-9-(4-methylphenyl)-2,3,3a,4,9,9a-hexahydro-1H-benzo[f]isoindole-3a-N-(N-oxo-3-pyridyl)methylcarboxamide]
10 | 9 nM | C=C(C(=O)N1C[C@H]2[C@@]3(c4ccc(C)cc4)CC[C@H](c4ccccc43)[C@@]2(C(=O)NNc2ccc(OC)cc2)C1)c1ccccc1OC (relative stereo) [Example 27, (3aRS,4SR,9SR,9aRS)-4,9-ethano-2-[2-(2-methoxyphenyl)propenoyl]-9-(4-methylphenyl)-2,3,3a,4,9,9a-hexahydro-1H-benzo[f]isoindole-3a-N'-(4-methoxyphenyl)carbohydrazide]
11 | 54 nM | C=C(C(=O)N1C[C@H]2[C@@]3(c4ccc(C)cc4)CC[C@H](c4ccccc43)[C@@]2(C(=O)NN(C)c2ccccc2)C1)c1ccccc1OC (relative stereo) [Example 28, (3aRS,4SR,9SR,9aRS)-4,9-ethano-2-[2-(2-methoxyphenyl)propenoyl]-9-(4-methylphenyl)-2,3,3a,4,9,9a-hexahydro-1H-benzo[f]isoindole-3a-N'-methyl-N'-phenylcarbohydrazide]
12 | 140 nM | C=C(C(=O)N1C[C@H]2[C@@]3(c4ccc(C)cc4)CC[C@H](c4ccccc43)[C@@]2(C(=O)NNc2ccccc2C)C1)c1ccccc1OC (relative stereo) [Example 29, (3aRS,4SR,9SR,9aRS)-4,9-ethano-2-[2-(2-methoxyphenyl)propenoyl]-9-(4-methylphenyl)-2,3,3a,4,9,9a-hexahydro-1H-benzo[f]isoindole-3a-N'-(2-methylphenyl)carbohydrazide]

The next lines start with the compound.

Row | Structure (SMILES) | IC50
13 | C=C(C(=O)N1C[C@@H]2[C@]3(c4ccc(C#N)cc4)CC[C@@H](c4ccccc43)[C@]2(C(=O)O)C1)c1ccccc1OC (racemic) [Example 95, (3aRS,4SR,9SR,9aRS)-9-(4-cyanophenyl)-4,9-ethano-2-[2-(2-methoxyphenyl)propenoyl]-2,3,3a,4,9,9a-hexahydro-1H-benzo[f]isoindole-3a-carboxylic Acid] | 177 nM
14 | C=C(C(=O)N1C[C@@H]2[C@]3(c4cccc(C#N)c4)CC[C@@H](c4ccccc43)[C@]2(C(=O)OC)C1)c1ccccc1OC (racemic) [Example 96, methyl (3aRS,4SR,9SR,9aRS)-9-(3-cyanophenyl)-4,9-ethano-2-[2-(2-methoxyphenyl)propenoyl]-2,3,3a,4,9,9a-hexahydro-1H-benzo[f]isoindole-3a-carboxylate] | 955 nM
15 | C=C(C(=O)N1C[C@@H]2[C@]3(c4ccc(OC)c(O)c4)CC[C@@H](c4ccccc43)[C@]2(C(=O)O)C1)c1ccccc1OC (racemic) [Example 97, (3aRS,4SR,9SR,9aRS)-4,9-ethano-9-(3-hydroxy-4-methoxyphenyl)-2-[2-(2-methoxyphenyl)propenoyl]-2,3,3a,4,9,9a-hexahydro-1H-benzo[f]isoindole-3a-carboxylic Acid] | 40 nM
16 | C=C(C(=O)N1C[C@@H]2[C@]3(c4ccc(C)cc4)CC[C@@H](c4c(OC)cccc43)[C@]2(C(=O)OC)C1)c1ccccc1OC (racemic) [Example 98, methyl (3aRS,4SR,9SR,9aRS)-4,9-ethano-5-methoxy-2-[2-(2-methoxyphenyl)propenoyl]-9-(4-methylphenyl)-2,3,3a,4,9,9a-hexahydro-1H-benzo[f]isoindole-3a-carboxylate] | 663 nM
17 | C=C(C(=O)N1C[C@@H]2[C@]3(c4ccc(C)cc4)CC[C@@H](c4c(OC)cccc43)[C@]2(C(=O)O)C1)c1ccccc1OC (racemic) [Example 99, (3aRS,4SR,9SR,9aRS)-4,9-ethano-5-methoxy-2-[2-(2-methoxyphenyl)propenoyl]-9-(4-methylphenyl)-2,3,3a,4,9,9a-hexahydro-1H-benzo[f]isoindole-3a-carboxylic Acid] | 18 nM
18 | C=C(C(=O)N1C[C@@H]2[C@]3(c4ccc(OC)cc4)CC[C@@](C)(c4ccccc43)[C@@]2(C(=O)O)C1)c1ccccc1OC (racemic) [Example 101, (3aRS,4SR,9SR,9aRS)-4,9-ethano-2-[2-(2-methoxyphenyl)propenoyl]-9-(4-methoxyphenyl)-4-methyl-2,3,3a,4,9,9a-hexahydro-1H-benzo[f]isoindole-3a-carboxylic Acid] | < 19 nM
19 | COc1ccc([C@]23CC[C@H](c4ccccc42)[C@@]2(C(=O)O)CN(C(=O)Cc4ccccc4OC)C[C@@H]32)cc1 (relative stereo) [Example 6, (3aRS,4SR,9SR,9aRS)-4,9-ethano-9-(4-methoxyphenyl)-2-[(2-methoxyphenyl)acetyl]-2,3,3a,4,9,9a-hexahydro-1H-benzo[f]isoindole-3a-carboxylic Acid] | 57.5 nM
20 | COc1ccccc1CC(=O)N1C[C@H]2[C@@]3(c4ccc(SC)cc4)CC[C@H](c4ccccc43)[C@@]2(C(=O)O)C1 (relative stereo) [Example 7, (3aRS,4SR,9SR,9aRS)-4,9-ethano-2-[(2-methoxyphenyl)acetyl]-9-(4-methylsulphanylphenyl)-2,3,3a,4,9,9a-hexahydro-1H-benzo[f]isoindole-3a-carboxylic Acid] | 50 nM
21 | COc1cccc([C@]23CC[C@H](c4ccccc42)[C@@]2(C(=O)O)CN(C(=O)Cc4ccccc4OC)C[C@@H]32)c1 (relative stereo) [Example 10, (3aRS,4SR,9SR,9aRS)-4,9-ethano-9-(3-methoxyphenyl)-2-[(2-methoxyphenyl)acetyl]-2,3,3a,4,9,9a-hexahydro-1H-benzo[f]isoindole-3a-carboxylic Acid] | 160 nM
22 | C=C(C(=O)N1C[C@H]2[C@@]3(c4ccc(C)cc4)CC[C@H](c4ccccc43)[C@@]2(C(=O)NN2CCCCC2)C1)c1ccccc1OC (relative stereo) [Example 24, (3aRS,4SR,9SR,9aRS)-4,9-ethano-2-[2-(2-methoxyphenyl)propenoyl]-9-(4-methylphenyl)-2,3,3a,4,9,9a-hexahydro-1H-benzo[f]isoindole-3a-N',N'-pentamethylenecarbohydrazide] | 84 nM
23 | C=C(C(=O)N1C[C@H]2[C@@]3(c4ccc5c(c4)OCCO5)CC[C@H](c4ccccc43)[C@@]2(C(=O)NCc2cccnc2)C1)c1ccccc1OC (relative stereo) [Example 33, (3aRS,4SR,9SR,9aRS)-9-(2,3-dihydro-1,4-benzodioxin-6-yl)-4,9-ethano-2-[2-(2-methoxyphenyl)propenoyl]-2,3,3a,4,9,9a-hexahydro-1H-benzo[f]isoindole-3a-N-(3-pyridylmethyl)carboxamide] | 242 nM
